The values that follow come from publication PMC4514850, “A Novel TGR5 Activator WB403 Promotes GLP-1 Secretion and Preserves Pancreatic β-Cells in Type 2 Diabetic Mice” (PLoS ONE, 2015).

Series [1] deals with T1, hTGR5 (Homo sapiens, UniProt Q8TDU6).
T1 construct: expressed in transfected cells; host or cells: 293T cells, transient transfection with pTGR5 (gift from Prof. Johan Auwerx)
T1 sequence (Q8TDU6 1-330): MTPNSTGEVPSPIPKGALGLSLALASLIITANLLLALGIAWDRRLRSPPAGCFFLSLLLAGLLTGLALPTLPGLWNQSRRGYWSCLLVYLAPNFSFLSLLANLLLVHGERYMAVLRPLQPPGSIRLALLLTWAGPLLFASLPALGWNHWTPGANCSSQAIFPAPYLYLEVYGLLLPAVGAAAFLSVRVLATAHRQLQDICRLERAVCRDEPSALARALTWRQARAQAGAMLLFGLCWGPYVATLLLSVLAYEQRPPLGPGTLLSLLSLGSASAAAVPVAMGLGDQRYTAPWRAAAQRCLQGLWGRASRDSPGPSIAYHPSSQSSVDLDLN
The experiment in a line: human TGR5 CRE-luciferase assay in co-transfected 293T cells. It counts as cell-based. As to the method: (§1) For human TGR5 luciferase (luc) assay, 293T cells were co-transfected with pCRE-luc, pTGR5 (kind gift from Prof. Johan Auwerx, Ecole Polytechnique Fédérale de Lausanne, Lausanne, Switzerland) and pRenilla (Promega, USA). WB403 was added 5 h later. Cells were harvested after 16 h and subjected to luciferase analysis on Lumistar Optima chemiluminescent detector (BMG labtech, Germany). For cAMP testing, 293T cells transiently transfected with pTGR5 or pGPR119 (GeneCopoeia, USA) were washed by FBS-free DMEM, and stimulated with WB403 in FBS-free DMEM containing 3-isobutyl-1-methyl-xanthine (IBMX, Sigma). Cell lysates were collected 30 min later and used for cAMP ELISA assay. FLIPR Calcium 5 assay kit (Molecular Devices, USA) was used for calcium mobilization assay. 293-GPR40 stable cells (kindly provided by Prof. Naiming Zhou of Zhejiang University, Hanzhou, China) or 293 cells transient transfected with GPR120 were seeded at 50,000 cells per well in black-walled clear-bottomed 96-well plates (Costar). An equal volume of loading buffer containing Fluo 4-AM was added the following day and cells were incubated for 1 h before stimulated with compounds. Increase of the intracellular Ca^2+ concentration was monitored by Flexstation 3 system (Molecular Devices, USA).
Fig 1 WB403 activated TGR5 and promoted active GLP-1 secretion. (A) WB403 stimulated hTGR5 in CRE-luciferase report system at the concentration range of 1–20 μmol/l. (B) WB403 stimulated hTGR5 specific cAMP accumulation at the concentration range of 1–50 μmol/l. n = 3. **p<0.01, ***p<0.001 vs. DMSO (+TGR5) group. (C) The hTGR5 targeted CRE-luciferase activity of WB403 and ZY403. […] (D) Effect of WB403 and ZY403 on gallbladders of mice. Normal mice were fasted overnight and treated with compounds (200 mg/kg) or vehicle (DMSO) by ip injection. Gallbladders (GB) were removed 30 min later and volumes measured then normalized to body weight (B.W.). n = 10. **p<0.01 vs. vehicle group. (E) Structure of WB403 and ZY403. WB403 promoted GLP-1 secretion in NCI-H716 cells (F), primary enterocytes (G), and MIN6 cells (H). n = 3. *p<0.05, **p<0.01, ***p<0.001 vs. vehicle group. (I) WB403 promoted GLP-1 in ICR mice. n = 5. **p<0.01 vs. vehicle group. Values represent mean ± SEM.

Series [2] addresses T1, hTGR5. Kind of series: TGR5-dependent cAMP accumulation (ELISA) in transfected 293T cells. In kind it is cell-based. As to the method:
as §1, with “293-GPR40 stable cells (kindly provided by Prof. Naiming Zhou of Zhejiang University, Hanzhou, China) or 293 cells transient transfected with GPR120 were seeded at 50,000 cells per well in black-walled clear-bottomed 96-well plates (Costar). An equal volume of loading buffer containing Fluo 4-AM was added the following day and cells were incubated for 1 h before stimulated with compounds.” left out
The GLP-1 (active) ELISA kit was purchased from Millipore, and insulin ELISA kit was from Mercodia. For quantitative determination of cAMP, a competitive enzyme immunoassay kit from R&D system was used. […]
Fig 1 WB403 activated TGR5 and promoted active GLP-1 secretion. […] Gallbladders (GB) were removed 30 min later and volumes measured then normalized to body weight (B.W.). n = 10. **p<0.01 vs. vehicle group. […]
In general terms: Changes in cAMP serve as a functional read-out for many G protein-coupled receptors.

Series [3] in a line: pharmacokinetic test in Sprague-Dawley rats. It counts as in vivo. To be noted: male, plasma, rat. As to the method: Adult male Sprague-Dawley rats fasted for 12 h were randomized into two groups (n = 5) for intravenous injection (i.v.) or oral administration (p.o.). Blood samples were collected from the orbital plexus at 10, 20, 30, 40, 60, 90, 120, 150, 180, 240, 360 and 480 min after administration. The concentration of WB403 in plasma was determined by an Aligent Technologies 1260 series HPLC system with a DAD detector. The oral bioavailability (F%) was calculated as F (%) = AUC0-∞(p.o.) / AUC0-∞(i.v.) × Dose (i.v.) / Dose (p.o.).

[4] abbreviates: control 293T cells transfected with an empty plasmid.
The mark [5] stands for this setting: iv, i.v. 40 mg/kg, mean ± SEM, n = 5.
[6] abbreviates: po, p.o. 40 mg/kg, mean ± SEM, n = 5.

As a reminder, the EC50 is the concentration that produces a half-maximal response. One may read the AUC(0-inf) as the area under the concentration-time curve extrapolated to infinity. Broadly, the AUC(0-t) is the area under the concentration-time curve up to a stated or last time point. For orientation: half-life means how long it takes for the measured level to halve. Read a low half-life as rapid decline. What is called bioavailability is the share of a dose that reaches the circulation, judged against a reference dose that is usually intravenous. As usually defined, the Cmax is the peak of the concentration-time curve. A word on the Tmax: it is the time from dosing to the highest level. In the case of `CCc1cc(-c2nc(C)c(COCc3ccc(Br)cc3)s2)ccn1` [WB403, 4-(5-((4-bromobenzyloxy)-methyl)-4-methylthiazol-2-yl)-2-ethylpyridine], the “stimulation of luciferase reaction through TGR5” value in series [1] (1–20 μmol/l, Fig 1A) is recorded as “dose-dependently stimulate”. Moreover, the EC50 in series [1] (CRE-luciferase, 293T cells, read-out: TGR5 EC50) is 5.5 µM. Moreover, in series [1] (setting [4]), the “luciferase activity in control 293T cells” value is listed as “no stimulation”. The “TGR5 luciferase activity in primary screen (fold increase compared to DMSO control)” value in series [1] (screen of 100 compounds, S1 Fig) is reported as “relatively lower luciferase activity”. For the same compound, in series [2] (1–50 μmol/l, 30 min, IBMX, Fig 1B), the “Gs-coupled cAMP accumulation through TGR5” value is “dose-dependently stimulate”. Also, the “cAMP activity in control 293T cells” value in series [2] (setting [4]) is reported as “no stimulation”. In series [3] (setting [5]), the AUC(0-inf) was 26900 ng·h/mL, the AUC(0-t) was 25000 ng·h/mL, the C0 came out at 25700 ± 4600 ng/mL and the half-life was 2.77 ± 0.43 h. This compound also gave a bioavailability in series [3] (oral, p.o. 40 mg/kg vs i.v. 40 mg/kg, from AUC0-∞) of 12%. Further, in series [3] (setting [6]), the AUC(0-inf) was 3220 ng·h/mL, the AUC(0-t) is 2280 ng·h/mL, the Cmax was 980 ± 160 ng/mL and the Tmax is 1.4 h. Moreover, the half-life in series [3] (setting [6]) worked out at 2.94 ± 1.08 h.
